The values below come from patent US12595250B2, “Substituted pyrimidine compounds as multifunctional radical quenchers and their uses” (ARIZONA BOARD OF REGENTS ON BEHALF OF ARIZONA STATE …, priority 2016, dated 2026).

In this experiment the test system is FRDA lymphocytes. The experiment can be described thus: Reactive oxygen species (ROS) assay (DCFH-DA, FACS). It is filed as cell-based, Human. Particulars: high concentration, 5 mM DEM. The protocol: The cells were stained with 2, 7-dichlorodihydrofluorescein diacetate (DCFH-DA) for 15 minutes prior to analysis. The samples were analyzed immediately by flow cytometry (C6 Accuri, BD Biosciences, San Jose, CA). The bar graph represents the percentage of the median mean fluorescence intensity of DCF fluorescence relative to a DEM-treated control. Data shown represent the mean±SEM of two different experiments run as duplicates.
Human mitochondrial disease cell lines, Friedreich's ataxia lymphocytes (GM15850), and Leigh's syndrome lymphocytes (GM13740) were obtained from Coriell Cell Repositories (Camden, NJ). […]
Quantitative analysis of intracellular ROS levels in FRDA lymphocytes, challenged with 5 mM diethyl maleate (DEM) in presence or absence of the test compounds, was obtained by FACS analysis using a dichlorodihydrofluorescein diacetate probe (DCFH-DA), as described in art (Goldschmidt, R., et al. Bioorg. Med Chem. 2013, 21, 969; Arce, P. M., et al. Bioorg. Med Chem. 2012, 20, 5188; Arce, P. M., et al. ACS Med Chem. Lett. 2011, 2, 608; Khdour, O. M., et al. Pharm. Res. 2011, 28, 2896; Lu, J., et al. Bioorg. Med Chem. 2010, 18, 7628; and Cai, X., et al. Bioorg. Med Chem. 2012, 20, 3584). […] The samples were analyzed immediately by flow cytometry (C6 Accuri, BD Biosciences, San Jose, CA), using a 488 nm excitation laser and the FL1-H channel 530±15 nm emission filter. […]

On to `CCCCCCCCCCCCCCc1nc(OC2CCC2)nc(OC2CCC2)c1O` [Compound 3b, 2,4-Dicyclobutanoxy-6-tetradecylpyrimidin-5-ol], for which the “Suppression of ROS (in words, FIG. 3)” value is on record as “appeared to be efficient”.
